The text below walks through data of PubChem BioAssay (NCI).

Some test systems named below: IGROV1 ovarian; SNB-75 CNS; 786-0 renal; OVCAR-5 ovarian; HT29 colon; MALME-3M melanoma; A549 NSCLC; HOP-62 NSCLC; SN12C renal; SK-MEL-5 melanoma.
Holding throughout (experiment): inhibition of tumour cell growth, NCI panel, 48 h

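Dose response: 5 concentrations. Exposure: 48 h. Format: 96-well plates. Endpoint: linear interpolation; highest concentration if not reached. The concentration for 50% growth inhibition is given as GI50. The concentration for full growth arrest is given as TGI.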

Consider `NC(=O)c1cccc(Nc2nccc(Nc3cccc4[nH]ncc34)n2)c1`, for which the GI50 with IGROV1 ovarian was 10.5 µM; in the test on SNB-75 CNS, 4.58 µM; in the test on 786-0 renal it was 10.8 µM; with OVCAR-5 ovarian it was 7.5 µM; in the test on HT29 colon it was 9.68 µM; in the test with MALME-3M melanoma, 24.4 µM. Also, the GI50 was above 24 µM in the test on A549 NSCLC, 9.28 µM in the test on HOP-62 NSCLC, 8.74 µM in the test on SN12C renal and 6.96 µM in the test with SK-MEL-5 melanoma. The TGI in the test with IGROV1 ovarian was above 25 µM; in the test with SNB-75 CNS, 15.6 µM; with 786-0 renal, above 25 µM; in the test on OVCAR-5 ovarian, above 25 µM; in the test on HT29 colon, above 25 µM; with MALME-3M melanoma, above 25 µM. Besides, the TGI in the test with A549 NSCLC, in the test with HOP-62 NSCLC, in the test on SN12C renal and in the test with SK-MEL-5 melanoma was above 25 µM in each case.
`COc1ccccc1CNCCCN1C(=O)c2ccc3c4c(ccc(c24)C1=O)C(=O)N(CCCCNCCCN)C3=O`: the GI50 was 1.43 µM in the test with IGROV1 ovarian; 7.13 µM in the test on SNB-75 CNS; 2.25 µM in the test on 786-0 renal; 2.95 µM with OVCAR-5 ovarian; 0.95 µM in the test with HT29 colon; 0.871 µM in the test on MALME-3M melanoma. Besides, the GI50 with A549 NSCLC is 1.58 µM; in the test on HOP-62 NSCLC, 2.93 µM; with SN12C renal it was 0.704 µM; with SK-MEL-5 melanoma, 0.467 µM. Also, the TGI was determined as 3.86 µM in the test with IGROV1 ovarian; 9.35 µM with 786-0 renal; 9.02 µM with OVCAR-5 ovarian; 3.37 µM in the test with HT29 colon; 2.18 µM with MALME-3M melanoma; 3.5 µM in the test on A549 NSCLC. The TGI in the test on HOP-62 NSCLC came to 10.4 µM; in the test with SN12C renal, 2.09 µM; in the test on SK-MEL-5 melanoma it was 0.95 µM.
As to `COc1ccc2c(c1)CC[C@H](O)/C2=C/c1cc(OC)c(OC)c(OC)c1`, the GI50 was 1.38 µM in the test with IGROV1 ovarian; 0.0638 µM with SNB-75 CNS; 0.156 µM in the test on 786-0 renal; 0.906 µM in the test with OVCAR-5 ovarian; 0.107 µM with HT29 colon; 0.771 µM in the test with MALME-3M melanoma. For the same compound, the GI50 was 0.245 µM in the test on A549 NSCLC, 0.0876 µM in the test on HOP-62 NSCLC, 0.998 µM in the test with SN12C renal and 0.0608 µM in the test on SK-MEL-5 melanoma. Moreover, the TGI in the test with IGROV1 ovarian, in the test on SNB-75 CNS, with 786-0 renal, in the test with OVCAR-5 ovarian, in the test with HT29 colon and in the test on MALME-3M melanoma was above 100 µM throughout. In addition, the TGI in the test with A549 NSCLC was above 100 µM; in the test on HOP-62 NSCLC, above 100 µM; with SN12C renal, above 100 µM; in the test on SK-MEL-5 melanoma, 2.89 µM.
Regarding `CSc1n[n+]2c(s1)SCCC2`, the TGI with IGROV1 ovarian, in the test on SNB-75 CNS, with 786-0 renal, with OVCAR-5 ovarian, with HT29 colon and in the test on MALME-3M melanoma was above 100 µM in each case. Further, the TGI in the test on A549 NSCLC was 92.3 µM; in the test with HOP-62 NSCLC, above 100 µM; in the test with SN12C renal it was above 100 µM; with SK-MEL-5 melanoma, above 100 µM.
Turning to `O=Cc1cccc2c1Oc1c(cccc1C(=O)O)S2`, the TGI in the test with IGROV1 ovarian, with SNB-75 CNS, in the test on 786-0 renal, in the test with OVCAR-5 ovarian, in the test with HT29 colon and in the test with MALME-3M melanoma was above 100 µM in each case. Further, the TGI in the test on A549 NSCLC, with HOP-62 NSCLC, in the test with SN12C renal and in the test on SK-MEL-5 melanoma was above 100 µM each time.
For `FC(F)(F)C1(Br)C(c2ccccc2)=C1c1ccccc1`, the TGI was determined as 74.3 µM in the test on IGROV1 ovarian; 88.6 µM with SNB-75 CNS; 31 µM in the test with 786-0 renal; 52 µM in the test on OVCAR-5 ovarian; 34.8 µM in the test on HT29 colon; 30.5 µM in the test with MALME-3M melanoma. Besides, the TGI was 85.7 µM in the test on A549 NSCLC, 39.4 µM in the test on HOP-62 NSCLC, 28.3 µM in the test on SN12C renal and 28.8 µM in the test with SK-MEL-5 melanoma.
`CCOC(=N)/C(=C1\OC(N)=C(c2ccc(Cl)cc2)C1=O)c1ccc(Cl)cc1`: the TGI with IGROV1 ovarian was above 100 µM; in the test with SNB-75 CNS, 38.5 µM; with 786-0 renal it was 32.7 µM; in the test with OVCAR-5 ovarian, 35 µM; in the test on HT29 colon, 52.6 µM; in the test with MALME-3M melanoma it was 28.2 µM. Further, the TGI in the test on A549 NSCLC came out at 66.7 µM; in the test on HOP-62 NSCLC, 43.6 µM; in the test with SN12C renal, 28.6 µM.
As to `COC(=O)Cc1ccc(Oc2cnc3cc(F)c(F)cc3n2)cc1`, the GI50 in the test on IGROV1 ovarian is above 100 µM; in the test on SNB-75 CNS, above 100 µM; in the test on 786-0 renal, above 100 µM; in the test on OVCAR-5 ovarian, above 100 µM; with HT29 colon, 58.1 µM; with MALME-3M melanoma it was above 100 µM. In addition, the GI50 in the test on A549 NSCLC is above 100 µM; in the test on HOP-62 NSCLC it was above 100 µM; with SN12C renal, above 100 µM; in the test with SK-MEL-5 melanoma, 32 µM. In addition, the TGI in the test with IGROV1 ovarian, with SNB-75 CNS, in the test on 786-0 renal, in the test with OVCAR-5 ovarian, in the test on HT29 colon and with MALME-3M melanoma was above 100 µM throughout. Further, the TGI with A549 NSCLC, in the test on HOP-62 NSCLC, in the test with SN12C renal and in the test with SK-MEL-5 melanoma was above 100 µM throughout.
With `C[N+](C)(C)CC(=O)N/N=C(\C(=O)NC1=C(Cl)C(=O)c2ccccc2C1=O)C(C#N)c1csc(-c2ccc([N+](=O)[O-])cc2)n1` (configuration not stated), the TGI with IGROV1 ovarian, in the test with SNB-75 CNS, in the test with 786-0 renal, with OVCAR-5 ovarian, in the test on HT29 colon and with MALME-3M melanoma was above 100 µM throughout. Also, the TGI with A549 NSCLC, in the test on HOP-62 NSCLC, in the test on SN12C renal and in the test on SK-MEL-5 melanoma was above 100 µM throughout.
For `CCOc1cccc2ccc[n+](CC)c12`, the TGI in the test on IGROV1 ovarian, in the test with SNB-75 CNS, in the test on 786-0 renal, in the test with OVCAR-5 ovarian, in the test on HT29 colon and with MALME-3M melanoma was above 100 µM in each case. The TGI with A549 NSCLC, in the test with HOP-62 NSCLC, in the test on SN12C renal and in the test with SK-MEL-5 melanoma was above 100 µM each time.
With `Cc1cc(C)c(NC(=S)NC(=O)c2ccccc2)cc1C`, the TGI in the test with IGROV1 ovarian, with SNB-75 CNS, with 786-0 renal, in the test on OVCAR-5 ovarian, with HT29 colon and with MALME-3M melanoma was above 100 µM in each case. Further, the TGI in the test with A549 NSCLC, in the test on HOP-62 NSCLC, in the test on SN12C renal and with SK-MEL-5 melanoma was above 100 µM each time.
For the compound `COC(=O)C1[C@H](c2cc(OC)c(OC)c(OC)c2)OC(=O)C1(C(=O)OC)C(=O)c1ccc2c(c1)OCO2` (some centres not stated), the TGI with IGROV1 ovarian, in the test with SNB-75 CNS, in the test with 786-0 renal, in the test on OVCAR-5 ovarian, in the test on HT29 colon and in the test with MALME-3M melanoma was above 100 µM in each case. Moreover, the TGI in the test with A549 NSCLC, in the test on HOP-62 NSCLC, in the test on SN12C renal and in the test with SK-MEL-5 melanoma was above 100 µM throughout.
As to `Cc1ccc(S(=O)(=O)NNC(=O)c2cc(C)c(C)cc2N)cc1`, the TGI in the test on IGROV1 ovarian, with SNB-75 CNS, in the test on 786-0 renal, in the test with OVCAR-5 ovarian, in the test with HT29 colon and in the test with MALME-3M melanoma was above 100 µM throughout. In addition, the TGI with HOP-62 NSCLC, in the test with SN12C renal and in the test with SK-MEL-5 melanoma was above 100 µM throughout.
In the case of `COC(=O)c1cc(O)c2c(c1C(=O)OC)C[C@H]1[C@@H]3CC=C4C[C@@H](O)CC[C@]4(C)[C@H]3CC[C@]21C`, the GI50 with IGROV1 ovarian is 3.89 µM; in the test with SNB-75 CNS it was 9.75 µM; in the test on 786-0 renal, 2.42 µM; in the test with OVCAR-5 ovarian, 4.82 µM; in the test with HT29 colon, 2.74 µM; with MALME-3M melanoma, 2.71 µM. The GI50 in the test with A549 NSCLC was 3.06 µM; in the test on HOP-62 NSCLC, 2.24 µM; in the test with SN12C renal, 3.57 µM. Further, the TGI in the test on IGROV1 ovarian came out at 15.9 µM; with SNB-75 CNS it was 55.9 µM; in the test on 786-0 renal it was 6.7 µM; in the test with OVCAR-5 ovarian, 23.9 µM; in the test with HT29 colon it was 7 µM; with MALME-3M melanoma it was 8.15 µM. The TGI was 11.7 µM in the test on A549 NSCLC, 6.27 µM in the test on HOP-62 NSCLC and 26.8 µM in the test on SN12C renal.
Turning to `CCC(CNc1cc(OC)cc2cccnc12)NC1CCCCC1` (configuration not stated), the GI50 in the test with IGROV1 ovarian is 10.6 µM; in the test with SNB-75 CNS, 21.3 µM; in the test on 786-0 renal, 24 µM; in the test on OVCAR-5 ovarian, 61 µM; with MALME-3M melanoma, 17.2 µM; in the test on A549 NSCLC, 63.3 µM. The GI50 with HOP-62 NSCLC was 66 µM; with SN12C renal, above 100 µM; in the test with SK-MEL-5 melanoma it was 15.8 µM. For the same compound, the TGI was 44.9 µM in the test with IGROV1 ovarian; above 100 µM in the test on SNB-75 CNS; 69.4 µM in the test with 786-0 renal; above 100 µM in the test on OVCAR-5 ovarian; 34.8 µM in the test with MALME-3M melanoma; above 100 µM in the test with A549 NSCLC. The figures for the TGI with HOP-62 NSCLC, in the test with SN12C renal and in the test with SK-MEL-5 melanoma were above 100 µM, above 100 µM and 30.6 µM, respectively.
For `CCCCCCCCCCCCCCCCCC(=O)OCC(COC(=O)CCCN)OC(=O)CCCN` (configuration not stated), the TGI with IGROV1 ovarian was 8.01 µM; in the test with SNB-75 CNS it was above 100 µM; with 786-0 renal it was 34.3 µM; with OVCAR-5 ovarian it was 29.4 µM; in the test on HT29 colon, 33.5 µM; with MALME-3M melanoma, 38.2 µM. Also, the TGI in the test on A549 NSCLC is 16.4 µM; in the test with HOP-62 NSCLC, 33.8 µM; in the test with SN12C renal it was 31.6 µM.
